Assay results: BindingDB's records for doi:10.1021/acs.jmedchem.0c00337 (Peking Union Medical College, 2020)

Key:
[1] = Reversal of Pgp-mediated DOX resistance in human SW620/AD300 cells assessed as potentiation of DOX-induced cytotoxicity by measuring DOX IC50 at 1 uM incubated for 48 hrs by SRB assay (Rvb = 33.39 +/- 7.08 uM)
[2] = Reversal of Pgp-mediated DOX resistance in human SW620/AD300 cells assessed as concentration required to show half of DOX IC50 incubated for 48 hrs by SRB assay

Row | EC50 [2] [µM] | SMILES | IC50 [1] [µM]
1 | – | COc1cc2c(cc1OC)CN(CCc1ccc(NC(=O)/C=C/c3c(-c4ccccc4)n(C)c4ncccc34)cc1)CC2 | 0.82
2 | – | COc1cc2c(cc1OC)CN(CCc1ccc(NC(=O)C(O)c3c(-c4ccccc4)n(C)c4ccccc34)cc1)CC2 (configuration not stated) | 1.1
3 | – | COc1cc2c(cc1OC)CN(CCc1ccc(NC(=O)C(c3c(-c4ccccc4)n(C)c4ccccc34)N3CCOCC3)cc1)CC2 (configuration not stated) | 0.55
4 | – | COc1cc2c(cc1OC)CN(CCc1ccc(NC(=O)/C=C/c3c(-c4ccccc4)oc4ccccc4c3=O)cc1)CC2 | 1.36
5 | – | COc1ccc2c(C)c(CC(=O)Nc3ccc(CCN4CCc5cc(OC)c(OC)cc5C4)cc3)c(=O)oc2c1 | 1.97
6 | – | COc1cc2c(cc1OC)CN(CCc1ccc(NC(=O)/C=C/c3cc(-c4ccccn4)cc(C)c3Oc3ccccn3)cc1)CC2 | 0.55
7 | – | COc1cc2c(cc1OC)CN(CCc1ccc(NC(=O)/C=C/c3cccc(Oc4ccc(-c5ccccn5)cc4)n3)cc1)CC2 | 0.99
8 | 0.103 | COc1cc2c(cc1OC)CN(CCc1ccc(NC(=O)/C=C/c3ccc(Oc4ccc(-c5cccnc5)cc4)nc3)cc1)CC2 | 0.39
9 | – | COc1cc2c(cc1OC)CN(CCc1ccc(NC(=O)/C=C/c3ccc(Oc4cccc(-c5ccccn5)c4)nc3)cc1)CC2 | 0.75
10 | – | COc1cc2c(cc1OC)CN(CCc1ccc(NC(=O)C3CC3c3ccc(Oc4ccc(-c5ccccn5)cc4)nc3)cc1)CC2 (configuration not stated) | 0.76
11 | – | COc1cc2c(cc1OC)CN(CCc1ccc(NC(=O)/C=C/c3ccc(Oc4ccc(-c5ccccn5)cc4C)nc3)cc1)CC2 | 0.74
12 | 0.037 | COc1cc2c(cc1OC)CN(CCc1ccc(NC(=O)/C=C/c3ccc(Oc4ccc(-c5ccccn5)c(Cl)c4)nc3)cc1)CC2 | 0.56
13 | – | COc1cc2c(cc1OC)CN(CCc1ccc(NC(=O)/C=C/c3ccc(Oc4ccc(-c5ccccn5)c(O)c4)nc3)cc1)CC2 | 0.82
14 | – | COc1cc2c(cc1OC)CN(CCc1ccc(NC(=O)/C=C/c3ccc(Oc4cc(O)c(-c5ccccn5)c(O)c4)nc3)cc1)CC2 | 0.78
15 | – | COc1cc2c(cc1OC)CN(CCc1ccc(NC(=O)/C=C/c3ccc(Oc4c(I)cc(-c5ccccn5)cc4I)nc3)cc1)CC2 | 1.18
16 | – | COc1cc2c(cc1OC)CN(CCc1ccc(NC(=O)/C=C/c3ccc(Oc4ccc(-c5ccccn5)cc4I)nc3)cc1)CC2 | 0.76
17 | – | COc1cc2c(cc1OC)CN(CCc1ccc(NC(=O)/C=C/c3ccc(Oc4ccc(-c5ccccn5)cc4Br)nc3)cc1)CC2 | 0.7
18 | 0.051 | COc1cc2c(cc1OC)CN(CCc1ccc(NC(=O)/C=C/c3ccc(Oc4ccc(-c5ccccn5)c(C#N)c4)nc3)cc1)CC2 | 0.61
19 | – | COc1cc2c(cc1OC)CN(CCc1ccc(NC(=O)/C=C/c3ccc(Oc4ccc(-c5ccccn5)c(C)c4)nc3)cc1)CC2 | 0.49
